Laboratory results taken from patent US20030050306A1, “Novel heteroaryl derivatives, their preparation and use” (H. Lundbeck A/S, priority 1999, published 2003).

What was measured:
[1] = biological target: T1, cloned human 5-HT1A receptors (Homo sapiens, UniProt P08908); assay: Inhibition of 3H-5-CT binding to human 5-HT1A receptors; conditions: cloned human 5-HT1A receptors in HeLa cells (HA7); for inhibition at 0.1 µM / Inhibition of 3H-5-CT Binding % inhibition at 100 nM: at 100 nM
T1 construct: expressed in transfected cells; host or cells: HeLa cells (HA7)
T1 sequence (P08908 1-422): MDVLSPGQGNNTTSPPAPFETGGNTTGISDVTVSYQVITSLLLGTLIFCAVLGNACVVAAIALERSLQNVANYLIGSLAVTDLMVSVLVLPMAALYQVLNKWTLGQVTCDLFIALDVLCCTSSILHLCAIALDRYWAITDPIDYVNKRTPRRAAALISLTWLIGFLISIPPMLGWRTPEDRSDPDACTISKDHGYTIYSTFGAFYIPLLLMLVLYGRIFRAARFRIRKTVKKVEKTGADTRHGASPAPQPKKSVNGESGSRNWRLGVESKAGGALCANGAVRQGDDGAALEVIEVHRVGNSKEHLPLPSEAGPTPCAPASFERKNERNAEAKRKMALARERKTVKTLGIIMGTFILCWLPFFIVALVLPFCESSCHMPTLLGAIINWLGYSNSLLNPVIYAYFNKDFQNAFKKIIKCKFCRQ
Procedure: The affinity of the compounds of the invention to 5-HT1A receptors was determined by measuring the inhibition of binding of a radioactive ligand at 5-HT1A receptors as described in the following test:
Inhibition of ^3H-5-CT Binding to Human 5-HT1A Receptors
By this method the inhibition by drugs of the binding of the 5-HT1A agonist ^3H-5-carboxamido tryptamine (3H-5-CT) to cloned human 5-HT1A receptors stably expressed in transfected HeLa cells (HA7) (Fargin, A. et al, J. Biol. Chem., 1989, 264, 14848) is determined in vitro. The assay was performed as a modification of the method described by Harrington, M. A. et at, J. Pharmacol. Exp. Ther., 1994, 268, 1098. Human 5-HT1A receptors (40 μg of cell homogenate) were incubated for 15 minutes at 37° C. in 50 mM Tris buffer at pH 7.7 in the presence of ^3H-5-CT. Non-specific binding was determined by including 10 μM of metergoline. The reaction was terminated by rapid filtration through Unifilter GF/B filters on a Tomtec Cell Harvester. Filters were counted in a Packard Top Counter.

[2] = biological target: T2, human cloned dopamine D4.2 receptors (Homo sapiens, UniProt P21917, DEL265-296); assay: Inhibition of the binding of 3H-YM-09151-2 to human dopamine D4 receptors; conditions: human cloned dopamine D4.2 receptors in CHO-cells; for inhibition at 0.05 µM / Inhibition of 3H-YM-09151-2 binding % inhibition at 50 nM: at 50 nM
T2 construct: expressed in transfected cells; host or cells: CHO cells
T2 sequence (P21917 with tags, fused parts or gaps DEL265-296): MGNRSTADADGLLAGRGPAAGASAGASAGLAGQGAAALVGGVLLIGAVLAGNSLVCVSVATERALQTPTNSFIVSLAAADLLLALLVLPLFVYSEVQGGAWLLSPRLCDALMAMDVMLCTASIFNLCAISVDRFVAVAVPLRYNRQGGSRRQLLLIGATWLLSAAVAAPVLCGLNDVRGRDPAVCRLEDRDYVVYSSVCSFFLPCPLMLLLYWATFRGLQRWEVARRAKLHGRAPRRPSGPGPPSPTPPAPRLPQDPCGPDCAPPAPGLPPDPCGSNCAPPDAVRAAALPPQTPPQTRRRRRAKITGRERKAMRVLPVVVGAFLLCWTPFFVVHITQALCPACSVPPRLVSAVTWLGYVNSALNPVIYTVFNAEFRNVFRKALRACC
Procedure: The compounds of the invention have also been tested for their affinity to dopamine D4 receptors in the following test.
Inhibition of the Binding of ^3H-YM-09151-2 to Human Dopamine D4 Receptors
By this method the inhibition by drugs of the binding of [^3H]YM-09151-2 (0.06 nM) to membranes of human cloned dopamine D4.2 receptors expressed in CHO-cells is determined in vitro. Method modified from NEN Life Science Products, Inc., technical data certificate PC2533-10/96.

| inhibition at 0.1 µM [1] | inhibition at 0.05 µM [2] | Structure (SMILES) | further results |
| --- | --- | --- | --- |
| 83% | 42% | N#Cc1ccc(N2CCN(CCCOc3c(Cl)cccc3Cl)CC2)c2c1OCCO2 [Compound 5cl, 8-{4-[3-(2,6-Dichloro-phenoxy)-propyl]-piperazin-1-yl}-2,3-dihydro-benzo[1,4]dioxine-5-carbonitrile] |  |
|  |  | Cc1cc(F)ccc1OCCCN1CCN(c2ccc(C#N)c3c2OCCO3)CC1 [Compound 6a, 8-{4-[3-(4-Fluoro-2-methyl-phenoxy)-propyl]-piperazin-1-yl}-2,3-dihydro-benzo[1,4]dioxine-5-carbonitrile] | IC50 [1]: 120 nM; IC50 [2]: 6.9 nM |
|  |  | N#Cc1ccc(N2CCN(CCCOc3ccc(F)cc3Br)CC2)c2c1OCCO2 [Compound 6b, 8-{4-[3-(2-Bromo-4-fluoro-phenoxy)-propyl]-piperazin-1-yl}-2,3-dihydro-benzo[1,4]dioxine-5-carbonitrile] | IC50 [1]: 230 nM; IC50 [2]: 10 nM |
|  |  | N#Cc1ccc(N2CCN(CCCOc3ccccc3Cl)CC2)c2c1OCCO2 [Compound 6c, 8-{4-[3-(2-Chloro-phenoxy)-propyl]-piperazin-1-yl}-2,3-dihydro-benzo[1,4]dioxine-5-carbonitrile] | IC50 [1]: 68 nM; IC50 [2]: 13 nM |
| 78% | 84% | c1ccc(SCCN2CCN(c3cccc4c3OCCO4)CC2)cc1 [Compound 7aa, 1-(2,3-Dihydro-benzo[1,4]dioxin-5-yl)-4-(2-phenylsulfanyl-ethyl)-piperazine] |  |
| 86% | 91% | Cc1cccc(C)c1OCCN1CCN(c2cccc3c2OCCO3)CC1 [Compound 7ab, 1-(2,3-Dihydro-benzo[1,4]dioxin-5-yl)-4-[2-(2,6-dimethyl-phenoxy)-ethyl]-piperazine] |  |
| 96% | 96% | Cc1cccc(C)c1SCCCCN1CCN(c2cccc3c2OCCO3)CC1 [Compound 7ac, 1-(2,3-Dihydro-benzo[1,4]dioxin-5-yl)-4-[4-(2,6-dimethyl-phenylsulfanyl)-butyl]-piperazine] |  |
|  | 91% | Cc1ccc(SCCN2CCN(c3cccc4c3OCCO4)CC2)c(C)c1 [Compound 7ad, 1-(2,3-Dihydro-benzo[1,4]dioxin-5-yl)-4-[2-(2,4-dimethyl-phenylsulfanyl)-ethyl]-piperazine] | IC50 [1]: 21 nM |
| 82% | 75% | FC(F)(F)c1ccccc1OCCN1CCN(c2cccc3c2OCCO3)CC1 [Compound 7ae, 1-(2,3-Dihydro-benzo[1,4]dioxin-5-yl)-4-[2-(2-trifluoromethyl-phenoxy)-ethyl]-piperazine] |  |
| 99% | 91% | FC(F)(F)c1ccccc1SCCN1CCN(c2cccc3c2OCCO3)CC1 [Compound 7af, 1-(2,3-Dihydro-benzo[1,4]dioxin-5-yl)-4-[2-(2-trifluoromethyl-phenylsulfanyl)-ethyl]-piperazine] |  |
| 79% | 88% | CCc1ccccc1OCCN1CCN(c2cccc3c2OCCO3)CC1 [Compound 7ag, 1-(2,3-Dihydro-benzo[1,4]dioxin-5-yl)-4-[2-(2-ethyl-phenoxy)-ethyl]-piperazine] |  |
|  | 87% | Clc1cccc(SCCN2CCN(c3cccc4c3OCCO4)CC2)c1Cl [Compound 7ah, 1-[2-(2,3-Dichloro-phenylsulfanyl)-ethyl]-4-(2,3-dihydro-benzo[1,4]dioxin-5-yl)-piperazine] | IC50 [1]: 1.6 nM |
| 90% | 82% | C=CCc1cccc(Cl)c1OCCN1CCN(c2cccc3c2OCCO3)CC1 [Compound 7ai, 1-[2-(2-Allyl-6-chloro-phenoxy)-ethyl]-4-(2,3-dihydro-benzo[1,4]dioxin-5-yl)-piperazine] |  |
| 99% | 84% | Cc1ccc(SCCCN2CCN(c3cccc4c3OCCO4)CC2)c(C)c1 [Compound 7aj, 1-(2,3-Dihydro-benzo[1,4]dioxin-5-yl)-4-[3-(2,4-dimethyl-phenylsulfanyl)-propyl]-piperazine] |  |
| 93% | 98% | FC(F)(F)c1ccccc1SCCCN1CCN(c2cccc3c2OCCO3)CC1 [Compound 7ak, 1-(2,3-Dihydro-benzo[1,4]dioxin-5-yl)-4-[3-(2-trifluoromethyl-phenylsulfanyl)-propyl]-piperazine] |  |
| 98% | 97% | Clc1cccc(SCCCN2CCN(c3cccc4c3OCCO4)CC2)c1Cl [Compound 7al, 1-[3-(2,3-Dichloro-phenylsulfanyl)-propyl]-4-(2,3-dihydro-benzo[1,4]dioxin-5-yl)-piperazine] |  |
| 100% | 99% | Clc1ccc(SCCCN2CCN(c3cccc4c3OCCO4)CC2)cc1Cl [Compound 7am, 1-[3-(3,4-Dichloro-phenylsulfanyl)-propyl]-4-(2,3-dihydro-benzo[1,4]dioxin-5-yl)-piperazine] |  |
|  |  | Clc1ccc(SCCCCN2CCN(c3cccc4c3OCCO4)CC2)cc1Cl [Compound 7an, 1-[4-(3,4-Dichloro-phenylsulfanyl)-butyl]-4-(2,3-dihydro-henzo[1,4]dioxin-5-yl)-piperazine] | Inhibition of 3H-5-CT Binding % inhibition at 100 nM [1]: 100%; Inhibition of 3H-YM-09151-2 binding % inhibition at 50 nM [2]: 91% |
| 97% | 89% | Cc1ccc(Cl)c(OCCCCN2CCN(c3cccc4c3OCCO4)CC2)c1 [Compound 7ao, 1-[4-(2-Chloro-5-methyl-phenoxy)-butyl]-4-(2,3-dihydro-benzo[1,4]dioxin-5-yl)-piperazine] |  |
|  |  | Clc1ccc(SCCN2CCN(c3cccc4c3OCCO4)CC2)c(Cl)c1 [Compound 7ap, 1-[2-(2,4-Dichloro-phenylsulfanyl)-ethyl]-4-(2,3-dihydro-henzo[1,4]dioxin-5-yl)-piperazine] | Inhibition of 3H-5-CT Binding % inhibition at 100 nM [1]: 91%; Inhibition of 3H-YM-09151-2 binding % inhibition at 50 nM [2]: 78% |
| 101% | 82% | Cc1cccc(SCCCN2CCN(c3cccc4c3OCCO4)CC2)c1 [Compound 7aq, 1-(2,3-Dihydro-benzo[1,4]dioxin-5-yl)-4-(3-m-tolylsulfanyl-propyl)-piperazine] |  |
|  | 99% | Clc1ccc(SCCCCN2CCN(c3cccc4c3OCCO4)CC2)c(Cl)c1 [Compound 7ar, 1-[4-(2,4-Dichloro-phenylsulfanyl)-butyl]-4-(2,3-dihydro-benzo[1,4]dioxin-5-yl)-piperazine] | IC50 [1]: 3.8 nM |
| 80% | 93% | CCc1ccccc1SCCN1CCN(c2cccc3c2OCCO3)CC1 [Compound 7as, 1-(2,3-Dihydro-benzo[1,4]dioxin-5-yl)-4-[2-(2-ethyl-phenylsulfanyl)-ethyl]-piperazine] |  |
|  |  | Clc1ccc(Cl)c(SCCN2CCN(c3cccc4c3OCCO4)CC2)c1 [Compound 7at, 1-[2-(2,5-Dichloro-phenylsulfanyl)-ethyl]-4-(2,3-dihydro-henzo[1,4]dioxin-5-yl)-piperazine] | Inhibition of 3H-5-CT Binding % inhibition at 100 nM [1]: 88%; Inhibition of 3H-YM-09151-2 binding % inhibition at 50 nM [2]: 92% |
| 84% | 87% | Clc1cccc(SCCN2CCN(c3cccc4c3OCCO4)CC2)c1 [Compound 7au, 1-[2-(3-Chloro-phenylsulfanyl)-ethyl]-4-(2,3-dihydro-benzo[1,4]dioxin-5-yl)-piperazine] |  |
| 90% | 75% | Clc1ccccc1SCCN1CCN(c2cccc3c2OCCO3)CC1 [Compound 7av, 1-[2-(2-Chloro-phenylsulfanyl)-ethyl]-4-(2,3-dihydro-benzo[1,4]dioxin-5-yl)-piperazine] |  |
